Where two headings read alike, the source gives them in different places.
Legend:
DENV1, strain MY97-10245 = conditions: A549; 48 hr; read-out: DENV1 HCI, EC50; cited from earlier work
DENV2-NGC virus E802D = type: cell-based; conditions: A549, MOI = 0.2; 48 hr; plaque assay
DENV2-NGC replicon E802D = type: cell-based; conditions: electroporated BHK-21; 2 days
in vitro [1] = type: cell-based; conditions: human; 4–5 days; read-out: CC50, HepG2
DENV3 strain MY05-34640 = conditions: A549; 48 hr; read-out: DENV3 HCI, EC50 (converted); cited from earlier work
[2] = biological target: DENV4 RdRp domain (aa 268–900) (Dengue virus type 4, UniProt P09866); experiment: Thermo-denaturation assay, recombinant RdRp domain; type: binding; conditions: +50 μM compound; DMSO control 50
Experimental: Site-directed alanine mutations of DENV4 FL NS5 cDNA were performed using pET28-D4-MY01-22713 NS5FL [23] as a template, according to the manufacturer’s protocol (Stratagene, USA). Protein expressions of DENV1-4 FL NS5 and their stability analyses by thermo-fluorescence were performed as described previously. DENV de novo initiation and elongation FAPA assays were earlier described. […]
6 Fi g .5. Ef fects of N -pocket compounds on DENV pol ymerase thermo-stability. Melting
7 temperatur e (Tm) w as ass essed b y thermo-d enatur ation in presence of the S YPRO Oran ge
8 dye as described in Materials and Methods. (A-F) Representative meltin g curves of DEN V4
10 inhibitors or 5 % DMSO control. […]
16 controls treated with DMSO.

DENV3 FL NS5 = biological target: T1, DENV3 FL NS5 (Dengue virus type 3, UniProt Q6YMS4); experiment: DENV3 FL NS5 de novo initiation FAPA assay; type: biochemical; conditions: one experiment; read-out: DENV FL NS5 de novo initiation FAPA, IC50, DENV3
T1 construct: 100 nM DENV FL NS5 protein was added; made in house
Experimental: DENV1-4 FL NS5 dnI assays were performed as described previously. Briefly, compounds from 0–20 or -100 μM concentrations are two-fold serially diluted into 384-well black opaque plates (Corning Costar), after which 100 nM DENV FL NS5 protein was added and the plates incubated at RT for 20 min. RNA and ATTO-CTP, ATP, GTP and UTP were then added and the plates incubated for another 120 min. Reactions were stopped with buffer containing 25 nM CIP, re- incubated at RT for 60 min and read on a Tecan Safire II microplate reader. For order-of-addition experiments, DENV4 FL NS5 was incubated for one hour at RT with RNA, ATP, and GTP or RNA, ATP, GTP and ATTO-CTP, followed by exposure to serially diluted compounds for 20 min at RT. The missing components (ATTO-CTP and UTP or UTP alone) were added and the reactions continued for 120 min after which STOP buffer was added as before. All datapoints were performed in duplicate wells. Each compound was tested at least twice.
2 Co mpound testing with DENV dn I FAPA assays. Final dn I assa y reaction mixtures
3 contained 100 nM DENV 5 ´UTR-L-3´UTR IVT RNA, 20 µ M ATP, 20 µM GTP, 20 µM
4 UTP, 5 µM ATTO -CTP, and 100 nM of DENV FL NS5 protein in 15 µl in assa y buffer
5 comprising 50 mM Tris/ HCl, pH 7.5, 10 mM KCl, 1 mM MgCl2, 0.3 mM MnCl2 (DENV2
6 and 4) or 1 mM MnCl 2 (DENV1 and 3), 0.001% Triton- X-100 and 10 µ M cystein e [ 1] . To
7 perform dose-respons e inhibition measurements, compounds from 0- 20 or - 100 µM
8 concentr ations are two -fold seriall y diluted into 384-well black opaqu e plat es (Corning
9 Costar), after which 100 nM DENV FL NS5 protein was added into resp ect ive wells. The
10 plates wer e sealed, b riefl y shak en and centrif uged at 1500 rpm for 30 sec and incubated at RT
11 for 15 min. Thereafter,RNA and ATTO -CTP, ATP, GTP and UTP were added to the wells to
12 start the reactions. The pl ates wer e re-seal ed, shaken and centrifuged as before, followed b y
13 incubation RT for 120 min. Reactions were stopped by addition of 10 µl of 2.5X STOP
14 buffer (200 mM NaCl, 25 mM MgCl2, 1.5M DEA, pH 10; Promega) with 25 nM calf
15 intestinal phosphatase (CIP), re- incubation at RT for 60 min and read on a Tecan Safire II
16 microplate reader. For o r der-of-addition experiments, DENV4 FL NS5 was incubated for one
17 hour at RT with RNA, ATP, and GTP or RNA, ATP, GTP and ATTO-CTP, followed by
18 exposure to seriall y dilut ed compounds for 20 mi n at RT. The missing components (ATTO-
19 CTP and UTP or UTP alone) were added and the reactions continued for 120 min after which
20 STOP buffer was added as before. All datapoints were performed in duplicate wells. Each
21 compound was tested at l east twice.
23 Compound testing in DENV1-4 infected cells by high content imaging. Approximatel y 7
24 × 10^3 A549 cells per well were s eeded into 384-well plates in Ham’s F-12K medium

DENV2-NGC replicon L512V = type: cell-based; conditions: electroporated BHK-21; 2 days
DENV2-NGC virus L512V = type: cell-based; conditions: A549, MOI = 0.2; 48 hr; plaque assay
in vitro [3] = type: cell-based; conditions: human; 4–5 days
DENV2 FL NS5 L511V/E802D = biological target: T2, DENV2 FL NS5 L511V/E802D (Dengue virus type 2, UniProt P14340, E3293D/L3003V); type: binding; conditions: 50 µM compound; for Protein melting temperature, Tm, DENV2 FL NS5 L511V/E802D: DMSO 35
T2 construct: Recombinant DENV2 (A, C) and DENV4 (B, D) FL NS5 proteins bearing single or double amino acid changes; made in house

[4] = system: DENV2-NGC virus Wild Type; experiment: WT DENV2-NGC virus in A549 cells, plaque assay; conditions: Dengue virus, DENV2, A549, 48 h, read-out: EC50, DENV2-NGC Virus, Wild Type
Experimental: 8 Plaque assay. Virus stock was produced b y harvesting the supernatant of DENV2 full -length
9 RNA- transf ected BHK -21 cells at 24, 48, 72, 96, and 120 hours post transfection. Virus titer
10 and morphology were determined by st andard plaque assa y. Briefl y, a seri es of 10 -fold
11 dilutions was prepared by first diluting 50 µl virus stock with 450 µl RPMI 1640 m edia
12 containing 2 % FBS to obtain 10-1 dilution and then further diluted until a final 10 -6 dilution
13 was achieved. Confluent BHK-21 cells (1 × 10^5 cells per well, plated 2 da ys in advance)
14 grown in 24-well plate was added with 200 µl of each dilution per well. Duplicates were
15 prepared for each time point and dilution factor. The infection was allowed to proceed at
16 30°C for 1 hour, followed by removing the m edia and adding 500 µl 0.8% methyl-cellulose
17 overla y (containing RPM I, 2 % FBS, 1 % P/S, 0.05 % NaHCO 3, 25 mM Na Hepes, and
18 0.5 % DMSO) into each well. The plates were incubated for 5 da ys at 37 °C in 5 % CO 2
19 before fixing in 3.7 % formaldehyde and staining with 1 % cr ystal violet. The viral titer was
20 calculated as plaque- forming unit (PFU) per ml.

[5] = system: Control DENV2-NGC EGFP-replicon cells passaged in DMSO; experiment: Control DENV2-NGC EGFP-replicon cells passaged in DMSO; type: cell-based; conditions: Dengue virus, DENV2, 48 h; 2 days
DENV4 RdRp = DENV4 RdRp (Dengue virus type 4, UniProt P09866); experiment: Surface plasmon resonance binding assay (Biacore T200)
Chain of DENV4 RdRp (P09866 2753-3387): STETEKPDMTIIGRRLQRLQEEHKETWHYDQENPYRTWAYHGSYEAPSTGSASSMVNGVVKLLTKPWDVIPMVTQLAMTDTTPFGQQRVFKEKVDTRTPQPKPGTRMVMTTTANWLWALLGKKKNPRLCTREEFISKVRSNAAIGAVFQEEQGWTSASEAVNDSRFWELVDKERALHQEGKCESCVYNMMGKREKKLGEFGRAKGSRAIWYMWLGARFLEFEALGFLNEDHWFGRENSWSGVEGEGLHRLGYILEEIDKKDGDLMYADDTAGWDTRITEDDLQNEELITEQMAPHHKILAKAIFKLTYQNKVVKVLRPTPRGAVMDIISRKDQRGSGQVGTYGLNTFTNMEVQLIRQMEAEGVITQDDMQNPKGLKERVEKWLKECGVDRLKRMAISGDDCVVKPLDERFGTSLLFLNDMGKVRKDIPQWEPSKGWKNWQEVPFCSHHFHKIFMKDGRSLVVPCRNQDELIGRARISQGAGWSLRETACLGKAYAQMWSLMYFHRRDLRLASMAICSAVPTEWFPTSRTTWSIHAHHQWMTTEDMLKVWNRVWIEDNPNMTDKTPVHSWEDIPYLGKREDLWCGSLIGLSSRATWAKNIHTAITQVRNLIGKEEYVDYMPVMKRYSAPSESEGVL
Experimental: Biotinylated DENV3 and DENV4 RdRp were captured on flow cells 2 and 4 respectively in 50 mM Tris/HCl, pH 7.5, 200 mM NaCl, 2 mM DTT, 0.05% Tween 20, and 3% DMSO at 4°C. Flow cell 1 and 3 were left blank to serve as a reference [37]. […] Compounds were injected at a flow rate of 30 μL/min, with 45 s contact time and 600 s dissociation, starting from the DMSO control and finishing with the highest concentration.

T1 sequence (Q6YMS4 2491-3390): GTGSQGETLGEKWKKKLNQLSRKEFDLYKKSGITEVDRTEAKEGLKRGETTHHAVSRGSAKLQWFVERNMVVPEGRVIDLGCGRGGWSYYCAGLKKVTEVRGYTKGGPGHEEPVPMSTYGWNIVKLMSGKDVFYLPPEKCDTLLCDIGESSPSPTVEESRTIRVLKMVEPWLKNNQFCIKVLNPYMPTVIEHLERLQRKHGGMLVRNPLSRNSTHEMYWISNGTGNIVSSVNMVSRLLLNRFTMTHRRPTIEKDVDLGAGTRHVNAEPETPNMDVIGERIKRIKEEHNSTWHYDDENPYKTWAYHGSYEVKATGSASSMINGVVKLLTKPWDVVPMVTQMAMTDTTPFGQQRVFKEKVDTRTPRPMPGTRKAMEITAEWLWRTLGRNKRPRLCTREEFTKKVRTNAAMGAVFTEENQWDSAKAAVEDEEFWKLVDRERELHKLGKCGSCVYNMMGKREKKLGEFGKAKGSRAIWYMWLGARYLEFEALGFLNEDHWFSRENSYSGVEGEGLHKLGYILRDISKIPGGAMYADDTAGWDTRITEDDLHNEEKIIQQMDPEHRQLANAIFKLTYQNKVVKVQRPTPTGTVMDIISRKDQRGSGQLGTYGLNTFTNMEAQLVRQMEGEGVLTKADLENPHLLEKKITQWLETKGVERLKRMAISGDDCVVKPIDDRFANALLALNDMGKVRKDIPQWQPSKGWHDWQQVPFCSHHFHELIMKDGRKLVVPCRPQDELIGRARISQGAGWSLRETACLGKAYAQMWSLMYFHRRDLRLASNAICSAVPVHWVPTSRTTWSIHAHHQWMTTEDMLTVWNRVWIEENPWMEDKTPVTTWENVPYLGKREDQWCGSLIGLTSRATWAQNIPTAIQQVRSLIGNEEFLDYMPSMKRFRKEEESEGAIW
Chain of DENV4 RdRp domain (aa 268–900) (P09866 2753-3387): as the sequence (P09866 2753-3387) above

SMILES	EC50 (DENV1, strain MY97-10245)	EC50 (DENV2-NGC virus E802D)	EC50 (DENV2-NGC replicon E802D)	CC50 (in vitro [1])	EC50 (DENV3 strain MY05-34640)	Protein melting temperature Tm with compound, RdRp domain [2]	IC50 (DENV3 FL NS5)	EC50 (DENV2-NGC replicon L512V)	EC50 (DENV2-NGC virus L512V)	CC50 (in vitro [3])	Tm change compared to DMSO control, DENV2 FL NS5 L511V/E802D (DENV2 FL NS5 L511V/E802D)	Protein melting temperature, Tm, DENV2 FL NS5 L511V/E802D (DENV2 FL NS5 L511V/E802D)	EC50 [4]	EC50 [5]	SPR % Rmax (DENV4 RdRp)
COc1cc(OC)c(-c2ccc(C#CCO)s2)cc1C(=O)NS(=O)(=O)c1cccc2cccnc12 [Compound 29]	6.3 ± 0.9 µM	5.8 µM	21.4 µM	> 50 µM	3.8 µM	64 °C	0.016 µM	32.3 µM	6 µM	> 50 µM	0.5 °C	35.5 °C	1.11 µM	3.55 µM	20.9%
COc1cccc(S(=O)(=O)NC(=O)c2cc(-c3ccc(C#CCO)s3)c(OC)cc2C)c1 [Compound 26i]	–	–	–	–	–	–	0.054 µM	–	–	–	–	–	–	–	–
COc1cccc(S(=O)(=O)NC(=O)c2cc(-c3ccc(C#CCO)s3)c(OC)cc2OC)c1 [Compound 27]	1.8 ± 0.1 µM	1.42 µM	12.8 µM	> 50 µM	1.8 ± 0.5 µM	58 °C	–	25.9 µM	2.2 µM	> 50 µM	0 °C	35 °C	0.87 µM	2.46 µM	66.8%

Reference: article PMC4976923, “Potent Allosteric Dengue Virus NS5 Polymerase Inhibitors: Mechanism of Action and Resistance Profiling” (PLoS Pathogens, 2016)
